These are literature values, as cited in US5030638A, “Method of antiviral enhancement” (priority 1990, dated 1991).

One series deals with trimming glucosidase I. Particulars: Hettkamp et al.; cited from earlier work.
For another series, the system named is trimming glucosidase II. Particulars: Hettkamp et al.; cited from earlier work.
The next series deals with HIV. Particulars: literature; cited from earlier work.
Another series has as its system α-glycosidase. Particulars: literature; cited from earlier work.

Turning to `CCCCCCCCCCCCN1C[C@H](O)[C@@H](O)[C@H](O)[C@H]1CO` [N-dodecyl-1-deoxynojirimycin], the “effect on trimming glucosidase I” value in the series with trimming glucosidase I was “to a lesser degree than deoxynojirimycin or N-methyl-deoxynojirimycin”. The “effect on trimming glucosidase II” value with trimming glucosidase II is given as “to a lesser degree than deoxynojirimycin or N-methyl-deoxynojirimycin”.

Take `OC[C@H]1NCC[C@@H](O)[C@@H]1O` [fagomine]: the “HIV inhibitory / antiviral activity” value in the series on HIV is “no HIV inhibition was observed”. In addition, in the series on α-glycosidase, the α-glycosidase inhibitory activity result is “known to have α-glycosidase inhibitory activity”.
